Data: patent publication US10421751B2, “Dihydro-2H-benzo[b][1,4]oxazine sulfonamide and related compounds for use as agonists of RORγ and the treatment of disease” (Lycera Corporation, priority 2015, dated 2019)
pEC50: −log10 of the molar value.

Assays:
RORγ-LBD = biological target: T1, RORγ-LBD (Homo sapiens, UniProt P51449); assay: RORγ-Ligand Binding Domain (LBD) TR-FRET Assay; assay type: biochemical; conditions: for pEC50: in presence of 2 μM RORγ antagonist ursolic acid, SRC1 coactivator peptide; for TR-FRET Assay Max Response: upper plateau of 4-parameter fit, signal in the absence of ursolic acid or test compound set as 100
T1 construct: made in house; host or cells: SF9 cells, baculovirus expression system; used as diluted lysate
T1 sequence (P51449 269-508 limits assumed): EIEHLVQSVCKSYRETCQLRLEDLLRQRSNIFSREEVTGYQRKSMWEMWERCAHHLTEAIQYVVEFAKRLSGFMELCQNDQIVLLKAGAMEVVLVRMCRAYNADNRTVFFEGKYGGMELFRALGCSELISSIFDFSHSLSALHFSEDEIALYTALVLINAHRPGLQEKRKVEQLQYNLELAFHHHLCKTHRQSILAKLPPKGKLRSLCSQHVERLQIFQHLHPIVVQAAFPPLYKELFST
Description: HIS-tagged RORγ-LBD protein was expressed in SF9 cells using a baculovirus expression system. The lysate was diluted in assay buffer (50 mM Tris pH 7.0, 50 mM KCl, 1 mM EDTA, 0.1 mM DTT, 0.01% BSA) to obtain RORγ-LBD final concentration of ˜3 nM in a 384-well assay plate (need to titrate for each batch of protein).
A stock of biotinylated-LXXLL peptide from coactivator SRC1 (Biotin-[…]) was prepared in assay buffer and added to each well (200 nM final concentration). A solution of Europium tagged anti-HIS antibody (0.6 nM final concentration) and APC-conjugated streptavidin (30 nM final concentration) were also added to each well. RORγ antagonist ursolic acid was also included at a final concentration of 2 μM. Compounds were diluted in DMSO and further diluted in assay buffer with a final DMSO concentration at 1%.
The final assay mixture was incubated overnight at 4° C. or 2 hours at room temperature, and the fluorescence signal was measured on an Envision plate reader: (Excitation filter=340 nm; APC emission=665 nm; Europium emission=615 nm; dichroic mirror=D400/D630; delay time=100 μs, integration time=200 μs). 50% Effective concentration (EC50) values for test compounds were calculated from the quotient of the fluorescence signal at 665 nm divided by the fluorescence signal at 615 nm. The quotient of the fluorescence signals in the absence of ursolic acid or test compound is set as 100. Max Response is defined as the upper plateau in the signal as determined by line-fit using a 4-parameter logistic model in PRISM (GraphPad).

Gal4-RORγ-LBD = biological target: T2, Gal4-RORγ-LBD (Homo sapiens, UniProt P51449); assay: Gal4-RORγ Luciferase Reporter Assay in HEK-293T Cells; assay type: cell-based; conditions: for pEC50: HEK-293 cells, in presence of 2 μM ursolic acid, overnight incubation, read-out: Ga14-RORγ Assay EC50; for Ga14-RORγ Assay Max Response: upper plateau of 4-parameter fit, luciferase signal in the absence of ursolic acid or test compound defined at 100
T2 construct: expressed in transfected cells; pcDNA3.1neo plasmid, co-transfected with pGL4.31 Gal4-luciferase reporter
T2 sequence (P51449 269-508 limits assumed): T1 sequence (P51449 269-508 limits assumed)
Description: In the following protocol, HEK-293 cells were transfected with a construct comprising the Gal4 DNA binding domain fused to the ligand binding domain of RORγ (Gal4-RORγ-LBD) in a pcDNA3.1neo plasmid, and also with a reporter construct comprising pGL4.31 Gal4-luciferase (Promega). Control cells were prepared similarly using empty pcDNA3.1neo and pGL4.31 vectors.
Trans-IT reagent (Mirus, 60 μL) at room temperature was added drop wise to OptiMEM (Invitrogen, 1.5 ml). This reagent mixture was mixed by inversion then incubated for 5 to 30 minutes at room temperature. It then was added to a solution of both expression vectors (5 μg each), mixed, and incubated at room temperature for about 20 minutes. HEK-293 cells were harvested from incubation flasks by removing the media, treating with TrypLE Express (Invitrogen), and incubating until the cells detached from the bottom of the flask (approximately 2-5 minutes). 10 Million cells were collected by centrifugation and re-suspended in 10 mL of Dulbecco's Modified Eagle Medium, High Glucose (DMEM, Invitrogen) containing 10% Fetal Bovine Serum and 100 IU each of penicillin and streptomycin. The re-suspended cells and the transfection mixture were added to a T75 flask, mixed and incubated overnight at 37° C. and 5% CO2.
The cells were harvested as described above, counted, and centrifuged to obtain the desired number of cells, then re-suspended in complete growth media at 0.75×10^6 cells/mL. The RORγ antagonist, ursolic acid, was added to the cells at a final concentration of 2 μM. Cells were plated at 20 μL of cell suspension/well (10,000-15,000 cells/well) in white tissue culture treated 384 well plates. Test compounds were dissolved at 10 mM in DMSO then diluted into complete growth medium to 5× the final intended test concentration. These drug stock solutions, 5 μL/well were added to the tissue culture plate. The final DMSO concentration was 0.2%. The plates were briefly centrifuged then incubated overnight at 37° C. and 5% CO2. To conduct the assay, the tissue culture plates were allowed to equilibrate to room temperature and One-Glo luciferase reagent (Promega, 25 μL/well) was added. The plates were briefly centrifuged then incubated at room temperature for 10 minutes. The luciferase intensity was read on an Envision plate reader (Perkin Elmer). RORγ activity was determined relative to controls and plotted as a function of test compound concentration using PRISM (GraphPad) to determine a 50% effective concentration (EC50). The luciferase signal in the absence of ursolic acid or test compound is defined at 100. The Max Response is the upper plateau in the signal as determined by line-fit using a 4-parameter logistic model in PRISM (GraphPad).

| SMILES | pEC50 (RORγ-LBD) | TR-FRET Assay Max Response (RORγ-LBD) | pEC50 (Gal4-RORγ-LBD) | Ga14-RORγ Assay Max Response (Gal4-RORγ-LBD) |
| --- | --- | --- | --- | --- |
| CCn1cc(S(=O)(=O)N2C[C@H](CCOc3noc(=O)[nH]3)Oc3ccc(/C=C(\C)c4c(F)cccc4Cl)cc32)c(Cl)n1 | > 7.00 | *** (a value in the range of greater than 150 to 200) | 5.30 to 7.00 | *** (a value in the range of greater than 150 to 200) |
| CCOc1nn(CC)cc1S(=O)(=O)N1C[C@H](CCOc2noc(=O)[nH]2)Oc2ccc(/C=C(\C)c3c(F)cccc3Cl)cc21 | > 7.00 | *** (a value in the range of greater than 150 to 200) | 5.30 to 7.00 | ** (a value in the range of greater than 90 to 150) |
| CCn1cc(S(=O)(=O)N2C[C@H](CCc3n[nH]c(=O)o3)Oc3ccc(/C=C(\C)c4c(F)cccc4Cl)cc32)c(OCCO)n1 | > 7.00 | **** (a value greater than 200) | 5.30 to 7.00 | ** (a value in the range of greater than 90 to 150) |
| C/C(=C\c1ccc2c(c1)N(S(=O)(=O)c1cccc(C(F)(F)F)c1)C[C@H](CCCn1cccn1)O2)c1c(F)cccc1Cl | > 7.00 | *** (a value in the range of greater than 150 to 200) | 5.30 to 7.00 | ** (a value in the range of greater than 90 to 150) |
| C/C(=C\c1ccc2c(c1)N(S(=O)(=O)c1cccc(C(F)(F)F)c1)C[C@H](CCc1nn[nH]n1)O2)c1c(F)cccc1Cl | > 7.00 | *** (a value in the range of greater than 150 to 200) | 5.30 to 7.00 | *** (a value in the range of greater than 150 to 200) |
| C/C(=C\c1ccc2c(c1)N(S(=O)(=O)c1cccc(C(F)(F)F)c1)C[C@H](CCn1ccnn1)O2)c1c(F)cccc1Cl | > 7.00 | *** (a value in the range of greater than 150 to 200) | 5.30 to 7.00 | ** (a value in the range of greater than 90 to 150) |
| C[C@@H]1[C@H](n2cc[nH]c2=O)Cc2ccc(/C=C/c3c(F)cccc3C(F)(F)F)cc2N1S(=O)(=O)c1cccc(C(F)(F)F)c1 | 5.30 to 7.00 | *** (a value in the range of greater than 150 to 200) | 5.30 to 7.00 | ** (a value in the range of greater than 90 to 150) |
| C/C(=C\c1ccc2c(c1)N(S(=O)(=O)c1cccc(C(F)(F)F)c1)[C@H](C)[C@H](Cn1ccnn1)C2)c1c(F)cccc1Cl | > 7.00 | *** (a value in the range of greater than 150 to 200) | < 5.00 | * (a value in the range of 40 to 90) |
| C/C(=C\c1ccc2c(c1)N(S(=O)(=O)c1cccc(C(F)(F)F)c1)[C@H](C)[C@H](Cn1cccn1)C2)c1c(F)cccc1Cl | > 7.00 | *** (a value in the range of greater than 150 to 200) | 5.30 to 7.00 | ** (a value in the range of greater than 90 to 150) |
| C/C(=C\c1ccc2c(c1)N(S(=O)(=O)c1cccc(C(F)(F)F)c1)C[C@H](Cc1n[nH]c(=O)o1)O2)c1c(F)cccc1Cl | > 7.00 | *** (a value in the range of greater than 150 to 200) | 5.30 to 7.00 | * (a value in the range of 40 to 90) |
| CCOc1ncc(C(F)(F)F)cc1S(=O)(=O)N1C[C@H](CCc2n[nH]c(=O)o2)Oc2ccc(/C=C/c3c(Cl)cccc3C(F)(F)F)cc21 | 5.30 to 7.00 | **** (a value greater than 200) | 5.30 to 7.00 | ** (a value in the range of greater than 90 to 150) |
| CCn1cc(S(=O)(=O)N2C[C@H](CCc3n[nH]c(=O)o3)Oc3ccc(/C=C/c4c(Cl)cccc4C(F)(F)F)cc32)c(OCCO)n1 | > 7.00 | **** (a value greater than 200) | 5.30 to 7.00 | ** (a value in the range of greater than 90 to 150) |
| C/C(=C\c1ccc2c(c1)N(S(=O)(=O)c1cccc(OC(F)F)c1)C[C@H](CCOc1noc(=O)[nH]1)O2)c1c(F)cccc1Cl | > 7.00 | *** (a value in the range of greater than 150 to 200) | 5.30 to 7.00 | ** (a value in the range of greater than 90 to 150) |
| C/C(=C\c1ccc2c(c1)N(S(=O)(=O)c1cccc(C(F)(F)F)c1)C[C@H](CCn1cc(C(=O)O)nn1)O2)c1c(F)cccc1Cl | > 7.00 | *** (a value in the range of greater than 150 to 200) | 5.30 to 7.00 | *** (a value in the range of greater than 150 to 200) |
| C/C(=C\c1ccc2c(c1)N(S(=O)(=O)c1cc(Cl)cnc1OCCO)C[C@H](CCc1n[nH]c(=O)o1)O2)c1c(F)cccc1Cl | > 7.00 | **** (a value greater than 200) | 5.30 to 7.00 | ** (a value in the range of greater than 90 to 150) |
| C/C(=C\c1ccc2c(c1)N(S(=O)(=O)c1cccc(C(F)(F)F)c1)C[C@H](CCc1noc(=O)[nH]1)O2)c1c(F)cccc1Cl | > 7.00 | *** (a value in the range of greater than 150 to 200) | 5.30 to 7.00 | *** (a value in the range of greater than 150 to 200) |
| C/C(=C\c1ccc2c(c1)N(S(=O)(=O)c1ccc(F)c(OC(F)F)c1)C[C@H](CCc1n[nH]c(=O)o1)O2)c1c(F)cccc1Cl | > 7.00 | **** (a value greater than 200) | 5.30 to 7.00 | ** (a value in the range of greater than 90 to 150) |
| C/C(=C\c1ccc2c(c1)N(S(=O)(=O)c1cccc(C(F)(F)F)c1)C[C@H](CCCn1ccnc1)O2)c1c(F)cccc1Cl | > 7.00 | *** (a value in the range of greater than 150 to 200) | 5.30 to 7.00 | ** (a value in the range of greater than 90 to 150) |
| C/C(=C\c1ccc2c(c1)N(S(=O)(=O)c1cccc(C(F)(F)F)c1)C[C@H](CCCn1cc(C(=O)O)nn1)O2)c1c(F)cccc1Cl | > 7.00 | *** (a value in the range of greater than 150 to 200) | 5.30 to 7.00 | ** (a value in the range of greater than 90 to 150) |
| C/C(=C\c1ccc2c(c1)N(S(=O)(=O)c1cccc(C(F)(F)F)c1)[C@H](C)[C@H](Cn1ccnc1)C2)c1c(F)cccc1Cl | > 7.00 | *** (a value in the range of greater than 150 to 200) | 5.30 to 7.00 | ** (a value in the range of greater than 90 to 150) |
